Test results from PMC12298883, “Discovery of Cyclopentane-Based Phospholipids as Miltefosine Analogs with Superior Potency and Enhanced Selectivity Against Naegleria fowleri” (Pharmaceuticals, 2025).

Tests used:
Assay type in all cases: cell-based, Naegleria fowleri
N. fowleri trophozoites [1] = experiment: TUNEL assay (DNA fragmentation); details: at IC90, 48 h; PI counterstain
Procedure: To further confirm the apoptotic mode of cell death induced by compounds 2a, 3b and 3d in N. fowleri, a TUNEL assay was conducted. This assay detects DNA fragmentation, a hallmark of apoptosis, by incorporating fluorescent dUTP at DNA break sites. […] This difference could reflect variations in the specific molecular pathways targeted by each compound or differences in their cellular uptake or metabolism.
Figure 6 TUNEL assay. DNA fragmentation implying apoptosis was detected by TUNEL (GFP channel, (Ex/Em = 490/525 nm) in the amoebae treated with tested compounds. These amoebae were also counterstained with PI (RFP channel, Ex/Em = 550/650 nm). Miltefosine (MF) was included as a positive reference control. NC, negative controls with 0.1% DMSO treatment. Images were representatives of the cell population in three individual experiments. Size bar: 10 µm.
N. fowleri trophozoites (2 × 10^6 cells/well) were seeded in a 6-well plate (Thermo Fisher Scientific), treated with compounds 2a, 3b or 3d (IC90) and incubated at 37 °C for 48 h. The TUNEL assay was performed by using TUNEL Fluorescein Isothiocyanate (FITC) Assay Kit (Abcam, Cambridge, UK) as described previously. N. fowleri trophozoites treated with 0.01% DMSO was used as an NC. The amoeba treated with miltefosine (IC90) were used as a positive control.

N. fowleri trophozoites [2] = experiment: JC-1 mitochondrial membrane potential assay; details: at IC90, 48 h
Procedure: To determine whether the apoptotic death of N. fowleri induced by compounds 2a, 3b and 3d is associated with mitochondrial dysfunction, the mitochondrial membrane potential (ΔΨm) was assessed using a JC-1 assay. The potential difference across the membrane in functioning mitochondria leads to the accumulation of cationic lipophilic fluorescent JC-1 molecules, forming red fluorescence (J-aggregate). Mitochondrial dysfunction results in the loss of mitochondrial membrane potential, leading to the transition from J-aggregates to monomers (green fluorescence). […] The absence of green and strong red fluorescence in untreated amoebae indicates healthy, functional mitochondria maintaining their ΔΨm. The shift to predominantly green fluorescence upon treatment with miltefosine, as well as compounds 2a, 3b and 3d, signifies a loss of ΔΨm, a critical early event in the intrinsic apoptotic pathway (Figure 7). Disruption of ΔΨm leads to the release of pro-apoptotic factors from the mitochondria, triggering the caspase cascade and, ultimately cell death. This observation aligns with the previous finding of DNA fragmentation and membrane compromise, further solidifying the apoptotic mechanism of these compounds.
Figure 7 Disruption of mitochondrial functions in N. fowleri. Mitochondrial membrane potential changes. Aggregate form (RFP channel, Ex/Em = 550/650 nm), implying healthy mitochondria, was found in N. fowleri trophozoites treated with 0.1% DMSO (NC), while monomer (GFP channel, Ex/Em = 490/525 nm) indicating the collapse of mitochondrial membrane potential was increased in treated amoebae. Miltefosine (MF) was included as a positive control drug. Images were representatives of the cell population in three individual experiments. Size bar: 10 µm.
The electrochemical gradient changes across the mitochondrial membrane in N. fowleri upon treatment of compounds 2a, 3b and 3d were measured using the JC-1 Mitochondrial Membrane Potential Assay Kit (Abcam, Cambridge, UK). The amoeba trophozoites (5 × 10^4 cells/well) were seeded in a 96-well black/clear bottom plate and incubated with compounds 2a, 3b or 3d (IC90) at 37 °C for 48 h. The JC-1 assay was conducted as described previously. The amoebae treated with Nelson’s medium containing 0.1% DMSO and miltefosine (IC90) were used as negative and positive controls, respectively.

N. fowleri trophozoites [3] = experiment: Apoptosis/necrosis fluorescence staining assay; details: at IC90, 48 h; apopxin green, 7-AAD red, cytocalcein blue
Source text: While apoptosis was previously believed to occur in multicellular metazoans, it was discovered that ancient forms of apoptotic-like cell death, which mimics some characteristics of apoptosis, can also trigger death in protozoa. In fact, apoptosis-like death is one of the programmed cell death molecular mechanisms in protozoa that also include necrosis. To further understand how compounds 2a, 3b and 3d trigger the death of N. fowleri in comparison to miltefosine, an evaluation of apoptosis and necrosis was conducted at IC90 of the tested compounds for 48 h. […] The diminished cytocalceine blue fluorescence, coupled with the surge in green fluorescence signifying apoptosis after treatment with the compounds (Figure 5), clearly indicates the reduction in viable cells and the initiation of programmed cell death. The absence of 7-AAD red fluorescence further reinforces the lack of detectable necrosis. This is a desirable trait for potential therapeutic agents, as necrosis, unlike apoptosis, can trigger inflammation due to the uncontrolled release of intracellular contents.
Figure 5 Apoptosis/necrosis assay. A fluorescence staining assay was performed using N. fowleri trophozoites treated with compounds 2a, 3b, 3d, and miltefosine (MF) as a reference; NC, negative controls with 0.1% DMSO treatment. Blue fluorescence representing living cells stained with cytocalcein (DAPI channel, Ex/Em = 405/450 nm). Green apopxin stains apoptotic cells to show green fluorescence (GFP channel, Ex/Em = 490/525 nm). 7-Amino Actinomycin D (7-AAD) stains late apoptotic cells and necrotic cells to show red fluorescence (RFP channel, Ex/Em = 550/650 nm). Images were representatives of cell populations in three individual experiments. Size bar: 10 µm.
Apoptosis/necrosis in treated N. fowleri trophozoites was assessed using the Apoptosis/Necrosis Detection Kit (Abcam, Cambridge, UK). N. fowleri trophozoites (5 × 10^4 cells/well) were seeded in a 96-well black/clear bottom plate (Thermo Fisher Scientific). Compounds 2a, 3b and 3d were treated to the cells at the concentrations of IC90 and incubated at 37 °C for 48 h. The apoptosis/necrosis assay was performed as described previously. Amoebae treated with 0.1% DMSO and miltefosine (IC90) were used as the negative controls (NC) and the positive controls, respectively.

| Structure (SMILES) | DNA fragmentation (TUNEL green fluorescence) (N. fowleri trophozoites [1]) | mitochondrial membrane potential (ΔΨm), JC-1 (N. fowleri trophozoites [2]) | mode of cell death (apoptosis/necrosis staining) (N. fowleri trophozoites [3]) |
| --- | --- | --- | --- |
| CCCCCCCCCCCCCCCCOP(=O)([O-])OCC[N+](C)(C)C [Miltefosine] | intense green fluorescence, confirming DNA fragmentation | loss of ΔΨm | apoptosis-like death, rather than necrosis |
| CCCCCCCCCCCCCO[C@@H]1CCC[C@H]1COP(=O)([O-])OCC[N+](C)(C)C [Compound 2a] | intense green fluorescence, confirming DNA fragmentation | loss of ΔΨm | apoptosis-like death, rather than necrosis |
| CCCCCCCCCCCCCOC[C@@H]1CCC[C@H]1OP(=O)([O-])OCC[N+](C)(C)C [Compound 3b] | intense green fluorescence, confirming DNA fragmentation | loss of ΔΨm | apoptosis-like death, rather than necrosis |
| CCCCCCCCCCCCCCCCCCCCCCOC[C@@H]1CCC[C@H]1OP(=O)([O-])OCC[N+](C)(C)C [Compound 3d] | intense green fluorescence, confirming DNA fragmentation | loss of ΔΨm | apoptosis-like death, rather than necrosis |
